Laboratory results as given in publication PMC6519835, “A family AA5_2 carbohydrate oxidase from Penicillium rubens displays functional overlap across the AA5 family” (PLoS ONE, 2019).

How the values were obtained:
[1] = target: T1, FgrGaOx (galactose oxidase) (Fusarium graminearum, UniProt P0CS93); assay type: biochemical
T1 construct: gene GAOA

[2] = target: T2, PruAA5_2A (Penicillium rubens, UniProt B6HHT0); assay: purified enzyme specific activity and kinetics (HRP/ABTS assay); assay type: biochemical
T2 construct: gene Pc21g18600; recombinant from P. pastoris
T2 sequence (B6HHT0 22-657): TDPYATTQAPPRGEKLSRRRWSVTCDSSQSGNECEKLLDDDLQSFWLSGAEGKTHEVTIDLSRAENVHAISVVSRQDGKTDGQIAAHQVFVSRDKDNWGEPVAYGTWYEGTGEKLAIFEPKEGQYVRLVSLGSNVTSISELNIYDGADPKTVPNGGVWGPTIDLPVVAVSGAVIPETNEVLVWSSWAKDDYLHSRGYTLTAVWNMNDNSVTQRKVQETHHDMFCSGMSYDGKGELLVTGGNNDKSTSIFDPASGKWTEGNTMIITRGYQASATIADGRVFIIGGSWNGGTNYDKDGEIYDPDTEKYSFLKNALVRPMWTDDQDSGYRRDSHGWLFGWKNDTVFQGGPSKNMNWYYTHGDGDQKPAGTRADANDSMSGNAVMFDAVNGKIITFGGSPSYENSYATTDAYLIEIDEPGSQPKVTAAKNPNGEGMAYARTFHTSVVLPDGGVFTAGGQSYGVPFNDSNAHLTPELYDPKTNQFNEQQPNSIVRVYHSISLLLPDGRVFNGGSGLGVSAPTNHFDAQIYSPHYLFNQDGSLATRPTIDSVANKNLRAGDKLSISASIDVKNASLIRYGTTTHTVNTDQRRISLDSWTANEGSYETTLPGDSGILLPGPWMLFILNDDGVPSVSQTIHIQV

[3] = target: T2, PruAA5_2A; assay: purified enzyme specific activity at […] (HRP/ABTS assay); assay type: biochemical
[4] = target: T2, PruAA5_2A; assay: purified enzyme kinetics (HRP/ABTS assay) and MS of the C-6 oxidized product; […] U/mg at […]; assay type: biochemical
[5] = target: T1, FgrGaOx (galactose oxidase); assay type: biochemical; remark: listed apart in the source
[6] = substrate: OC1COC(O)CO1; assay: purified protein; assay type: biochemical, Penicillium rubens; conditions: copper; Tyr-Cys radical cofactor

T1 sequence (P0CS93 42-680 limits assumed): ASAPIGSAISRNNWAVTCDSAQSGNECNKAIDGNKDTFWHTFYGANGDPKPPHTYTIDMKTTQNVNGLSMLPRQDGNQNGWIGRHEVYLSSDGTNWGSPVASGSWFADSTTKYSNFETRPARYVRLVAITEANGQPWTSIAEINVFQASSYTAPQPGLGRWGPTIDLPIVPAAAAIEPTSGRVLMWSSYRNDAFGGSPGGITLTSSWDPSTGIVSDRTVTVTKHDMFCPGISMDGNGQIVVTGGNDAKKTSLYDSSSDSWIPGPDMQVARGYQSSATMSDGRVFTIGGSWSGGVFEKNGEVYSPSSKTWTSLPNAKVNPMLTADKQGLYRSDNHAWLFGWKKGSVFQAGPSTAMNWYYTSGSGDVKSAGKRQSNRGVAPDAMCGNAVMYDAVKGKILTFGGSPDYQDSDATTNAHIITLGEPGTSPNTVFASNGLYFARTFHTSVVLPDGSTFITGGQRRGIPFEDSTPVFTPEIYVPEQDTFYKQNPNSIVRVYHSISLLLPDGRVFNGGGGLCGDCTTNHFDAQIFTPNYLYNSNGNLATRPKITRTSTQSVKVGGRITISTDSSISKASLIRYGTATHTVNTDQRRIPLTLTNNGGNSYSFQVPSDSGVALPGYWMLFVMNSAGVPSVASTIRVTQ

OC[C@H]1OC(O)[C@H](O)[C@@H](O)[C@H]1O (stereo partly shown) [galactose]
purified enzyme kinetics (HRP/ABTS assay), kcat/KM 20 s^-1*mM^-1 [1]: 20000 M⁻¹ s⁻¹

OCC(O)CO [glycerol]
purified enzyme specific activity and kinetics (HRP/ABTS assay) [2]: 22.5 U/mg

OC[C@H]1O[C@H](OC[C@H]2OC(O)[C@H](O)[C@@H](O)[C@@H]2O)[C@H](O)[C@@H](O)[C@H]1O (stereo partly shown) [melibiose]
purified enzyme specific activity at 300 mM (HRP/ABTS assay) [3]: 17.5 U/mg

OC[C@H]1O[C@H](OC[C@H]2O[C@H](O[C@]3(CO)O[C@H](CO)[C@@H](O)[C@@H]3O)[C@H](O)[C@@H](O)[C@@H]2O)[C@H](O)[C@@H](O)[C@H]1O [raffinose]
purified enzyme kinetics (HRP/ABTS assay) and MS of the C-6 oxidized product; 31 [4]: 31.4 U/mg | purified enzyme kinetics (HRP/ABTS assay), kcat/KM 30 s^-1*mM^-1 [5]: 30000 M⁻¹ s⁻¹

OC[C@H]1O[C@H](OC[C@H]2O[C@H](OC[C@H]3O[C@H](O[C@]4(CO)O[C@H](CO)[C@@H](O)[C@@H]4O)[C@H](O)[C@@H](O)[C@@H]3O)[C@H](O)[C@@H](O)[C@H]2O)[C@H](O)[C@@H](O)[C@H]1O [stachyose]
purified enzyme specific activity at 300 mM (HRP/ABTS assay) [3]: 9.4 U/mg

B1: PruAA5_2A (Penicillium rubens Wisconsin 54-1255) (protein)
chain: T2 sequence (B6HHT0 22-657)
notes: recombinant from P. pastoris
Km [6]: 53 mM
